# According to US10351573B2, “Benzoic acid, benzoic acid derivatives and heteroaryl carboxylic acid conjugates of hydrocodone, prodrugs, methods of making and uses thereof” (KemPharm, Inc., priority 2009, dated 2019):
# Entries after “also recorded” stand apart in the source; their conditions may differ. Ends that are not written are not given here.
# Tests used:
# [1] = Chemical stability: hydrolysis of conjugates in water for one hour; format: physicochemical
# Protocol: Exemplary conjugates of hydrocodone of the present technology and control test conjugates not of the present technology were tested for chemical stability under conditions similar to what a potential drug abuser may use to “extract” the active portion of the molecule, for example dissolved in water, hydrochloric acid or sodium bicarbonate either at ambient temperature or 100° C.
# [2] = Hydrolysis to hydrocodone in 1 N hydrochloric acid for 1 hour
# [3] = Oral PK profiles in rats (plasma hydrocodone, hydromorphone, intact Bz-HC by LC/MS/MS); details: equivalent to 2 mg/kg hydrocodone freebase
# [4] = Hydrolysis in 5% NaHCO3 for one hour; format: physicochemical
# [5] = Water solubility / feasibility of intranasal or intravenous dosing
# [6] = Intranasal PK profile in rats; details: equivalent to 2 mg/kg hydrocodone freebase
# [7] = Tamper resistance: solvent hydrolysis studies; format: physicochemical
# Protocol: In order to further evaluate the tamper-resistant properties of Bz-HC, a wide variety of Bz-HC solvent extraction studies were performed. […] The prodrug is not cleaved and no hydrocodone becomes available. […] We also conducted a wide variety of Bz-HC solvent hydrolysis studies in our own laboratories.
# [8] = system: trypsin, pancreatin, pepsin and various esterases; test: Enzymatic tampering studies; format: in vitro ADME
# From the text: Without being bound by theory, it is believed that metabolism of Bz-HC after oral administration that allows for the rapid release of therapeutic amounts of hydrocodone requires the combinations and processes of the esterases and other enzymes functioning in the living enterocytes and liver tissue inside the body.
# [9] = Example 20: intact Bz-HC in plasma samples of Examples 13-18; format: in vivo; details: humans, oral, LLOQ
# Protocol: Validated LC/MS/MS methods were used to measure plasma concentrations of Bz-HC, hydrocodone, hydromorphone and acetaminophen (APAP). The lower limits of quantitation (LLOQ) for Bz-HC, hydrocodone, hydromorphone, and APAP in plasma were 25 pg/mL, 250 pg/mL, 25 pg/mL, and 0.025 μg/mL, respectively for examples 14-18. For example 13, the lower limits of quantitation (LLOQ) for Bz-HC, hydrocodone, hydromorphone were 0.5 ng/mL.
# LC/MS/MS analyses were performed in order to attempt to measure intact Bz-HC concentrations in the plasma samples obtained from any of the blood samples described above in Examples 13-18. However, all plasma concentrations of intact Bz-HC were <LLOQ (25 pg/mL) and no PK analyses could be performed
# Oral PK profiles in dogs = details: equivalent to 2 mg/kg hydrocodone freebase
# [10] = Example 22: intranasal crushed / oral intact tablets human PK study vs HB/APAP
# [11] = human, plasma, inhaled or intranasal, 13.34 mg
molecule,measurement,setting,value
2-aminobenzoate hydrocodone [Compound 2-ABz-HC],%-release (conjugate hydrolyzed) in water,[1]; 100° C.,0%
same,%-release (conjugate hydrolyzed) in water,[1]; ambient (about 20° C.),0%
same,%-release in 1N HCl,[2]; 100° C.,16%
same,%-release in 1N HCl,[2]; ambient (~20° C.),0%
same,"AUC of hydrocodone, % lower than Hydrocodone.BT",[3],approximately 35%
same,"AUC of hydromorphone, % lower than Hydrocodone.BT",[3],approximately 25%
same,"Cmax of hydrocodone, % lower than Hydrocodone.BT",[3],~60%
same,"Cmax of hydromorphone, % lower than Hydrocodone.BT",[3],~50%
COc1ccc(C(=O)OC2=CC[C@H]3[C@H]4Cc5ccc(OC)c6c5[C@@]3(CCN4C)C2O6)cc1O (stereo partly shown) [3-OH-4-MeO-Bz-HC],%-release in 5% NaHCO3,"[4]; 5% NaHCO3, 100° C.",36%
same,%-release in 5% NaHCO3,"[4]; 5% NaHCO3, ambient (~20° C.)",0%
same,%-release in 1N HCl,[2]; 100° C.,35%
same,%-release in 1N HCl,[2]; ambient (~20° C.),0%
same,water solubility (in words),[5],poorly water soluble; also recorded: hydrophobic
"COc1ccc2c3c1OC1C(OC(=O)CCCCC(=O)O)=CC[C@H]4[C@@H](C2)N(C)CC[C@]314 (stereo partly shown) [Adipate-HC, reference compound]",%-release in 5% NaHCO3,"[4]; 5% NaHCO3, 100° C.",100%
same,%-release in 5% NaHCO3,"[4]; 5% NaHCO3, ambient (~20° C.)",3%
same,"AUC for hydromorphone (FIG. 8), % higher than Bz-HC",[6],approximately 750%
same,"AUC for hydromorphone (so in the source); FIG. 7, hydrocodone curves), % higher than Bz-HC",[6],approximately 280%
same,"Cmax for hydromorphone (FIG. 8), % higher than Bz-HC",[6],~660%
same,"Cmax for hydromorphone (so in the source); FIG. 7, hydrocodone curves), % higher than Bz-HC",[6],~60%
same,%-release in 1N HCl,[2]; 100° C.,100%
same,%-release in 1N HCl,[2]; ambient (~20° C.),13%
same,water solubility (in words),[5],water soluble
"COc1ccc2c3c1OC1C(OC(=O)c4ccccc4)=CCC4C(C2)N(C)CCC314 (stereo not shown) [Bz-HC, benzoate-hydrocodone]",%-release of Hydrocodone,"[7]; Acetone, ambient temperature, 0.5 h",0%
same,%-release of Hydrocodone,"[7]; Acetone, ambient temperature, 1 h",0%
same,%-release of Hydrocodone,"[7]; Acetone, ambient temperature, 4 h",0%
same,%-release of Hydrocodone,"[7]; Acetone, at boiling point, 0.5 h",0%
same,%-release of Hydrocodone,"[7]; Acetone, at boiling point, 1 h",0%
same,%-release of Hydrocodone,"[7]; Acetone, at boiling point, 4 h",0%
same,%-release of Hydrocodone,"[7]; Ethanol, ambient temperature, 0.5 h",0%
same,%-release of Hydrocodone,"[7]; Ethanol, ambient temperature, 1 h",0%
same,%-release of Hydrocodone,"[7]; Ethanol, ambient temperature, 4 h",0%
same,%-release of Hydrocodone,"[7]; Ethanol, at boiling point, 0.5 h",0%
same,%-release of Hydrocodone,"[7]; Ethanol, at boiling point, 1 h",0%
same,%-release of Hydrocodone,"[7]; Ethanol, at boiling point, 4 h",0%
same,%-release of Hydrocodone,"[7]; Ethyl acetate, ambient temperature, 0.5 h",0%
same,%-release of Hydrocodone,"[7]; Ethyl acetate, ambient temperature, 1 h",0%
same,%-release of Hydrocodone,"[7]; Ethyl acetate, ambient temperature, 4 h",0%
same,%-release of Hydrocodone,"[7]; Ethyl acetate, at boiling point, 0.5 h",0%
same,%-release of Hydrocodone,"[7]; Ethyl acetate, at boiling point, 1 h",0%
same,%-release of Hydrocodone,"[7]; Ethyl acetate, at boiling point, 4 h",0%
same,%-release of Hydrocodone,"[7]; Methanol, ambient temperature, 0.5 h",0%
same,%-release of Hydrocodone,"[7]; Methanol, ambient temperature, 1 h",0%
same,%-release of Hydrocodone,"[7]; Methanol, ambient temperature, 4 h",0%
same,%-release of Hydrocodone,"[7]; Methanol, at boiling point, 0.5 h",0%
same,%-release of Hydrocodone,"[7]; Methanol, at boiling point, 1 h",0%
same,%-release of Hydrocodone,"[7]; Methanol, at boiling point, 4 h",0%
same,%-release of Hydrocodone,"[7]; Methyl ethyl ketone, ambient temperature, 0.5 h",0%
same,%-release of Hydrocodone,"[7]; Methyl ethyl ketone, ambient temperature, 1 h",0%
same,%-release of Hydrocodone,"[7]; Methyl ethyl ketone, ambient temperature, 4 h",0%
same,%-release of Hydrocodone,"[7]; Methyl ethyl ketone, at boiling point, 0.5 h",0%
same,%-release of Hydrocodone,"[7]; Methyl ethyl ketone, at boiling point, 1 h",0%
same,%-release of Hydrocodone,"[7]; Methyl ethyl ketone, at boiling point, 4 h",0%
same,%-release of Hydrocodone,"[7]; Octane, ambient temperature, 0.5 h",0%
same,%-release of Hydrocodone,"[7]; Octane, ambient temperature, 1 h",0%
same,%-release of Hydrocodone,"[7]; Octane, ambient temperature, 4 h",0%
same,%-release of Hydrocodone,"[7]; Octane, at boiling point, 0.5 h",0%
same,%-release of Hydrocodone,"[7]; Octane, at boiling point, 1 h",0%
same,%-release of Hydrocodone,"[7]; Octane, at boiling point, 4 h",0%
same,%-release of Hydrocodone,"[7]; Petrol ether, ambient temperature, 0.5 h",0%
same,%-release of Hydrocodone,"[7]; Petrol ether, ambient temperature, 1 h",0%
same,%-release of Hydrocodone,"[7]; Petrol ether, ambient temperature, 4 h",0%
same,%-release of Hydrocodone,"[7]; Petrol ether, at boiling point, 0.5 h",0%
same,%-release of Hydrocodone,"[7]; Petrol ether, at boiling point, 1 h",0%
same,%-release of Hydrocodone,"[7]; Petrol ether, at boiling point, 4 h",0%
same,%-release of Hydrocodone,"[7]; Tetrahydrofuran, ambient temperature, 0.5 h",0%
same,%-release of Hydrocodone,"[7]; Tetrahydrofuran, ambient temperature, 1 h",0%
same,%-release of Hydrocodone,"[7]; Tetrahydrofuran, ambient temperature, 4 h",0%
same,%-release of Hydrocodone,"[7]; Tetrahydrofuran, at boiling point, 0.5 h",0%
same,%-release of Hydrocodone,"[7]; Tetrahydrofuran, at boiling point, 1 h",0%
same,%-release of Hydrocodone,"[7]; Tetrahydrofuran, at boiling point, 4 h",0%
same,%-release of Hydrocodone,"[7]; Toluene, ambient temperature, 0.5 h",0%
same,%-release of Hydrocodone,"[7]; Toluene, ambient temperature, 1 h",0%
same,%-release of Hydrocodone,"[7]; Toluene, ambient temperature, 4 h",0%
same,%-release of Hydrocodone,"[7]; Toluene, at boiling point, 0.5 h",0%
same,%-release of Hydrocodone,"[7]; Toluene, at boiling point, 1 h",0%
same,%-release of Hydrocodone,"[7]; Toluene, at boiling point, 4 h",0%
same,%-release of Hydrocodone,"[7]; Water, ambient temperature, 0.5 h",0%
same,%-release of Hydrocodone,"[7]; Water, ambient temperature, 1 h",0%
same,%-release of Hydrocodone,"[7]; Water, ambient temperature, 4 h",0%
same,%-release of Hydrocodone,"[7]; Water, at boiling point, 0.5 h",0%
same,%-release of Hydrocodone,"[7]; Water, at boiling point, 1 h",0%
same,%-release of Hydrocodone,"[7]; Water, at boiling point, 4 h",0%
same,%-release of Hydrocodone,"[7]; Xylene, ambient temperature, 0.5 h",0%
same,%-release of Hydrocodone,"[7]; Xylene, ambient temperature, 1 h",0%
same,%-release of Hydrocodone,"[7]; Xylene, ambient temperature, 4 h",0%
same,%-release of Hydrocodone,"[7]; Xylene, at boiling point, 0.5 h",0%
same,%-release of Hydrocodone,"[7]; Xylene, at boiling point, 1 h",0%
same,%-release of Hydrocodone,"[7]; Xylene, at boiling point, 4 h",0%
same,release of hydrocodone from the prodrug by enzymes (in words),[8],no significant release of hydrocodone
same,plasma concentrations of intact Bz-HC,[9],< 0.025 ng/mL
same,AUC value for intact Bz-HC as % of the AUC value for hydrocodone,Oral PK profiles in dogs,approximately 10%
same,solubility at physiological pH (in words),[5]; human physiological pH of 7.4 (blood),highly insoluble
same,water solubility (in words),[5],hydrophobic; also recorded: poor water solubility
same,half-life,"[10]; human, plasma, inhaled or intranasal",66.6 min
same,AUC(0-inf),[10]; [11],13.3 ± 8.86 ng·h/mL
same,AUC(0-t),[10]; [11],13.2 ± 8.86 ng·h/mL
same,Tmax,[10]; [11],27 min
same,"Tlast of Bz-HC (time of the last quantifiable concentration), median",[10]; intranasal crushed Bz-HC.HCl/APAP 13.34/650 mg,6.22 h
same,AUC for intact Bz-HC as % of the AUC value for hydrocodone,[3],approximately 10%
same,AUC for intact Bz-HC as % of the AUC value for hydromorphone,[3],~3%
COc1ccc2c3c1OC1C(OC(=O)c4cccc(O)c4)=CC[C@H]4[C@@H](C2)N(C)CC[C@]314 (stereo partly shown) [Compound 3-OH-Bz-HC],water solubility (in words),[5],poorly water soluble; also recorded: hydrophobic
COc1ccc(C(=O)OC2=CC[C@H]3[C@H]4Cc5ccc(OC)c6c5[C@@]3(CCN4C)C2O6)cc1 (stereo partly shown) [Compound 4-MeO-Bz-HC],%-release (conjugate hydrolyzed) in water,[1]; 100° C.,0%
same,%-release (conjugate hydrolyzed) in water,[1]; ambient (about 20° C.),0%
same,water solubility (in words),[5],hydrophobic
COc1ccc2c3c1OC1C(OC(=O)c4ccc(O)cc4)=CC[C@H]4[C@@H](C2)N(C)CC[C@]314 (stereo partly shown) [Compound 4-OH-Bz-HC],%-release (conjugate hydrolyzed) in water,[1]; 100° C.,0%
same,%-release (conjugate hydrolyzed) in water,[1]; ambient (about 20° C.),0%
same,%-release in 5% NaHCO3,"[4]; 5% NaHCO3, 100° C.",23%
same,%-release in 5% NaHCO3,"[4]; 5% NaHCO3, ambient (~20° C.)",1%
same,%-release in 1N HCl,[2]; 100° C.,30%
same,%-release in 1N HCl,[2]; ambient (~20° C.),0%
same,water solubility (in words),[5],hydrophobic
"COc1ccc2c3c1OC1C(OC(=O)COCC(=O)O)=CC[C@H]4[C@@H](C2)N(C)CC[C@]314 (stereo partly shown) [Diglycolate-HC, reference compound]",water solubility (in words),[5],water soluble
"COc1ccc2c3c1OC1C(OC(=O)c4cccnc4)=CCC4C(C2)N(C)CCC314 (stereo not shown) [Nicotinate-HC, nicotinate-hydrocodone]",water solubility (in words),[5],hydrophobic
same,AUC values of hydrocodone and hydromorphone compared to Hydrocodone.BT (in words),[3],within the range of bioequivalence
COc1ccc2c3c1OC1C(OC(=O)c4ccc5c(c4)OCO5)=CC[C@H]4[C@@H](C2)N(C)CC[C@]314 (stereo partly shown) [Piperonylate-HC],water solubility (in words),[5],hydrophobic
same,water solubility (in words),[5]; listed as piperonylate-HC,poorly water soluble
"Tyr-Tyr-Phe-Phe-Ile-Hydrocodone (YYFFI-Hydrocodone) [YYFFI-HC, reference compound]",%-release in 5% NaHCO3,"[4]; 5% NaHCO3, 100° C.",70%
same,%-release in 5% NaHCO3,"[4]; 5% NaHCO3, ambient (~20° C.)",0%
